Results as given in patent EP1222921B1, “Pharmaceutical compositions of tizoxanide and/or nitazoxanide” (Romark Laboratories, L.C., priority 1997, dated 1998).
Several values for one entry are separate records, joined by “and”; a condition that tells them apart may be missing. Identical values can stand only once.

What was measured:
Fasciola hepatica = test: In vitro culture of mature flukes
Method: The in vitro efficacy of nitazoxanide and desacetyl-nitazoxanide was tested against Fasciola hepatica. Mature F. hepatica were recovered from the bile ducts of 3 calf livers condemned due to fasciolosis at the Louisiana Veterinary Medical Diagnostic Laboratory at the Hardy's Meat […], Bunkie, LA. Flukes were washed in sterile saline for 1 hour and transferred to sterile saline or RPMI (pH 7.4) for an additional 3 hours. Flukes were then held in sterile RPMI-rabbit serum (50:50 v/v) or sterile RPMI (pH 7.4) overnight at 37°C with 5% CO2. In vitro culture (37°C, 5% CO2) was done according to a modification of the method of Ibarra and Jenkins ([…]. 70:655-661, 1984). […] Only flukes that had normal activity and morphology were used. […] Two control flukes were included in each replicate, […] and one in unmedicated culture media […]. Flukes were examined for the effects of drug treatment as evidenced by death, motility disturbances or morpholgic changes as compared to untreated control flukes, using a backlighted panel and a lighted 3X magnifying lens.

MRC5 fibroblasts = details: human, 72 h
[1] = tested on: immature (4-week/old) F. gigantica; test: Experimentally infected rabbits, immature flukes; format: in vivo, Fasciola gigantica
Method: Nitazoxanide was tested against immature and mature Fasciola gigantica in experimentally infected rabbits. Fasciola gigantica encysted metacercariae (EMC) were collected on cellophane sheet after 28-35 days from infection of L. calludi snails by Fasciola gigantica miracidium using the technique described by […] snails were exposed daily to artificial light, for 30 minutes, in clean dechlorinated tap water. The resulting encysted […]) were preserved at 4°C in a refrigerator for 5 to 8 days under the surface of water until they were used to infect experimental animals. Forty (40) Boscat rabbits, weighting 1.5 to 2 kg each, were included in the study and allocated to two treatment groups of 20 animals. Animals from Group 1 were orally infected with 35-40 encysted […] wrapped in a leaf of lettuce and pushed on the root of the tongue of the animals. The mouths of the animals were held closed by hand until the encysted metacercariae were swallowed. These Group 1 animals were used to test the efficacy of nitazoxanide against immature stages (4-5 weeks old) of Fasciola […]. Ten animals from Group 1 received 35 mg of nitazoxanide, morning and evening, for 7 consecutive days 4 weeks after their infection at the immature stage of the parasite cycle. The ten remaining animals in Group 1 were kept as untreated controls. All animals were fed with dry ration until the end of the experiment. Seven days after administration of the last dose of nitazoxanide, all rabbits from each group were sacrificed. The surface of the liver was examined for the presence of necrotic migrating furrows especially at the immature stage of the parasite cycle. These necrotic areas were examined using two surgical needles in order to extract the juvenile migrating flukes according to the technique described by El-Bahy. The livers were sliced in small pieces especially around the migrating furrows and macerated under a microscope in order to extract the existing flukes. The abdominal cavity and the visceral surfaces were washed with warm water. The water was then collected, sieved and examined for identification of juvenile flukes. All the collected parasites as well as parts of them were counted in both treated and untreated animal in both Groups 1 and 2. […] The efficacy of nitazoxanide was calculated by using the formula indicated below: % efficacy(a - b)/(a)x 100 [formula] Where: • a = the number of flukes recovered from feces in the control animals • b = the number of flukes recovered from feces in the treated animals.

[2] = mean of 10 rabbits, 70 mg/day for 7 consecutive days

Question: Which results are given for `CC(=O)Oc1ccccc1C(=O)Nc1ncc([N+](=O)[O-])s1` [Nitazoxanide, 2-(acetolyloxy)-N-(5-nitro 2-thiazoly) benzamide]?
Answer: effects on flukes (death, motility disturbances) (Fasciola hepatica; 1 µg treatment): one fluke died by hour 16, three by hour 41 and five by hour 74; 3 flukes remained active at hour 91 and one fluke had activity at hour 115; effects on flukes (death, motility disturbances) (Fasciola hepatica; 3 µg treatment): By 23 hours, only 2 sluggish flukes in the 3 µg group remained alive; these were dead by hour 41; effects on flukes (death, motility disturbances) (Fasciola hepatica; 5 µg treatment): only 3 flukes were active at hour 6 and none were active at 16 hours; effects on flukes (death, motility disturbances) (Fasciola hepatica; 10 µg treatment): only one fluke survived to 16 hours; effects on flukes (death, motility disturbances) (Fasciola hepatica; 25 µg treatment): all flukes were dead or moribund except one fluke at 1 hour in the 25 µg group it was dead at 3 hour; effects on flukes (death, motility disturbances) (Fasciola hepatica; 50 µg treatment): all flukes were dead or moribund; effects on flukes (death, motility disturbances) (Fasciola hepatica; 100 µg treatment): all flukes were dead or moribund; concentrations with marked toxicity on the cell monolayer (MRC5 fibroblasts): ≥ 2500 ng/mL; overall efficacy ([1]; 70 mg/day dose for 7 consecutive days): moderately effective; No. of flukes extracted from liver of Treated Rabbits ([1]; individual rabbits No. 1-10, 35 mg morning and evening for 7 consecutive days, 4 weeks after infection): 3 (5×) and 4 (4×) and 2; Efficacy % ([1]; individual rabbits No. 1-10 versus untreated control, 35 mg morning and evening for 7 consecutive days): 50% (4×) and 40% (3×) and 42% (2×) and 60%; Efficacy %, Mean (means percentage of reduction) [1, 2]: 46.77%; No. of flukes extracted from liver of Treated Rabbits, Mean [1, 2]: 3.3; percentage of reduction, range ([1]; range over 10 rabbits, 70 mg/day for 7 consecutive days): 40-60%
